For 16 molecules, inhibition and IC50 results are on record in US10266497B2 (ABIDE THERAPEUTICS, INC., priority 2017, dated 2019).

pIC50: −log10 of the molar value.

Assay [1] concerns the target T1, MAGL (Homo sapiens, UniProt Q99685).
T1 sequence (Q99685 1-303): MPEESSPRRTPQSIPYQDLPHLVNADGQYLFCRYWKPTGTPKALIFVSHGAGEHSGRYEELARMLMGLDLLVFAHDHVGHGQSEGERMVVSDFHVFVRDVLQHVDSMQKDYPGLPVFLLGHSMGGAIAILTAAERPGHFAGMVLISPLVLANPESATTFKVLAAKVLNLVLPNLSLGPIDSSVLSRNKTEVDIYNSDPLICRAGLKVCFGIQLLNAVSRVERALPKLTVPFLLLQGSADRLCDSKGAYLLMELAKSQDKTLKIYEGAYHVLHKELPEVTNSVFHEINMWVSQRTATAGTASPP
Nature of the assay: In vitro competitive activity-based protein profiling, MAGL, human. To be noted: for inhibition at 1 µM: read-out: MAGL % inh. 1 μM (human).

Assay [2] deals with T2, MAGL (Mus musculus, UniProt O35678).
T2 sequence (O35678 1-303): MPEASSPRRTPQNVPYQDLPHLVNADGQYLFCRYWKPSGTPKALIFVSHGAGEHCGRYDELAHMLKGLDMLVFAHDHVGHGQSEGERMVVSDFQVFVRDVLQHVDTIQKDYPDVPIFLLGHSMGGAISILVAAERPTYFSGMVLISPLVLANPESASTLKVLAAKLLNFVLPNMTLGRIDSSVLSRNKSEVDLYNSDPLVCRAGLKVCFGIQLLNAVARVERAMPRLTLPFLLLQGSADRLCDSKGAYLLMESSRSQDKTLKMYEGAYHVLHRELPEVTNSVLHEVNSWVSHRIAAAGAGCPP
Nature of the assay: In vitro competitive activity-based protein profiling, MAGL, mouse. To be noted: read-out: MAGL % inh. 1 μM (mouse).

For assay [3], the target named is T3, FAAH (Homo sapiens, UniProt O00519).
T3 sequence (O00519 1-579): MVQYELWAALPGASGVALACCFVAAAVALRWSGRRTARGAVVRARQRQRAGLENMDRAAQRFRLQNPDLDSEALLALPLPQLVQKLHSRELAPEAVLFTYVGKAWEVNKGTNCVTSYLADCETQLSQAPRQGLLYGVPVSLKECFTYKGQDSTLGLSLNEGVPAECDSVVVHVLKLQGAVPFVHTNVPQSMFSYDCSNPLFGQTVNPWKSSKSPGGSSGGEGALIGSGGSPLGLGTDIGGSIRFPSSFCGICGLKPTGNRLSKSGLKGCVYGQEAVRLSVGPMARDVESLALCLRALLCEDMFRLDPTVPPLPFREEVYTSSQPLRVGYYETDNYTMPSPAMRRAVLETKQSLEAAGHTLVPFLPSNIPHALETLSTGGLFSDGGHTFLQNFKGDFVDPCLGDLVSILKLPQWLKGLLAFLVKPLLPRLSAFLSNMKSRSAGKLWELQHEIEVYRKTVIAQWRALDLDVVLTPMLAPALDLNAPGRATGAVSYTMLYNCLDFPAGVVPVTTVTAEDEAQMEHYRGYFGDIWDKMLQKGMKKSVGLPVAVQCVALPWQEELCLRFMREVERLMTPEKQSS
The experiment in a line: In vitro competitive activity-based protein profiling, FAAH, human. As to conditions: for inhibition at 1 µM: read-out: FAAH % inh. 1 μM (human).

The target in assay [4] is T4, FAAH (Mus musculus, UniProt O08914).
T4 sequence (O08914 1-579): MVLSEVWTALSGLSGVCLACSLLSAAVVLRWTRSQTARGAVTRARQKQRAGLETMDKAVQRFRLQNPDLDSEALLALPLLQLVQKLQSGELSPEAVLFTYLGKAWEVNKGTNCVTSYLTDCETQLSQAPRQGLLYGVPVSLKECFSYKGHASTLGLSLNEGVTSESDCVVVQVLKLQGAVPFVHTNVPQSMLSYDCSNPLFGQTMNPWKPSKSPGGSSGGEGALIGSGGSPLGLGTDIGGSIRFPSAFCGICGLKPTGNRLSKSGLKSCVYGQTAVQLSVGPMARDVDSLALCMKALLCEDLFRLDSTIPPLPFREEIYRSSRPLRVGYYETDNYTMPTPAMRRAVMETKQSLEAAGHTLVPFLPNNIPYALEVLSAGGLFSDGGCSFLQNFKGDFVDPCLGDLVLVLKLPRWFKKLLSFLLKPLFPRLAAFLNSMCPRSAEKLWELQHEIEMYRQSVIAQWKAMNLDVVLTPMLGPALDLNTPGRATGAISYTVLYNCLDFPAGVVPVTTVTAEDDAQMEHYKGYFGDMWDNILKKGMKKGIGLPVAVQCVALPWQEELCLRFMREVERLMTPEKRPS
The experiment in a line: In vitro competitive activity-based protein profiling, FAAH, mouse. As to conditions: read-out: FAAH % inh. 1 μM (mouse).
Description: Biological Evaluation In Vitro Competitive Activity-Based Protein Profiling.
Proteomes (mouse brain membrane fraction for mouse assays; human prefrontal cortex membrane fractions for human assays) (50 mL, 1.0 mg/mL total protein concentration) were preincubated with varying concentrations of inhibitors at 37° C. After 30 min, FP-Rh (1.0 mL, 50 mM in DMSO) was added and the mixture was incubated for another 30 min at 37° C. Reactions were quenched with SDS loading buffer (15 μL—4λ) and run on SDS-PAGE.

As to `O=C(O)c1ccn(C(=O)N2CCN(Cc3ccc(C(F)(F)F)c(-c4nnco4)c3)CC2)n1` [Example 9, 1-(4-(3-(1,3,4-oxadiazol-2-yl)-4-(trifluoromethyl)benzyl)piperazine-1-carbonyl)-1H-pyrazole-3-carboxylic Acid], the inhibition at 1 µM at MAGL [1] is more than 75%; at MAGL [2], more than 75%; on FAAH [3] it was 0 to 25%; at FAAH [4], 0 to 25%.

`O=C(O)c1nn(C(=O)N2CC3CN(Cc4cccc(Oc5ccc(Cl)cc5)c4)CC3C2)cc1Cl` (stereo not shown) [Example 137, 4-chloro-1-(5-(3-(4-chlorophenoxy)benzyl)octahydro-pyrrolo[3,4-c]pyrrole-2-carbonyl)-1H-pyrazole-3-carboxylic acid]: the pIC50 on MAGL [1] and on FAAH [3] was 6.00 to 7.00 throughout. In addition, the inhibition at 1 µM at MAGL [1], at MAGL [2], at FAAH [3] and on FAAH [4] was more than 75% in each case.

As to `O=C(O)c1ccn(C(=O)N2CCC3(CCN(Cc4cnccc4C(F)(F)F)C3)CC2)n1` [Example 127], the inhibition at 1 µM is more than 75% at MAGL [1], more than 75% at MAGL [2], 0 to 25% on FAAH [3] and 0 to 25% on FAAH [4].

Turning to `CN(Cc1ccccc1Cl)[C@H]1C[C@@H]2CN(C(=O)n3cc(Cl)c(C(N)=O)n3)C[C@@H]2C1` [Example 128], the inhibition at 1 µM on MAGL [1], at MAGL [2], at FAAH [3] and at FAAH [4] was more than 75% throughout.

On to `O=C(O)c1ccn(C(=O)N2CCN(Cc3ccc(C(F)(F)F)cc3N3CCC(F)CC3)CC2)n1` [Example 102, 1-(4-(2-(4-fluoropiperidin-1-yl)-4-(trifluoromethyl)benzyl)piperazine-1-carbonyl)-1H-pyrazole-3-carboxylic acid], for which the inhibition at 1 µM on MAGL [1] was more than 75%; at MAGL [2], more than 75%; on FAAH [3], 25 to 50%; at FAAH [4], 0 to 25%.

Regarding `Cc1ccc(CN2CCC3(CCN(C(=O)n4ccc(C(=O)O)n4)CC3)C2)cc1Cl` [Example 154, 1-(2-(3-chloro-4-methylbenzyl)-2,8-diazaspiro[4.5]decane-8-carbonyl)-1H-pyrazole-3-carboxylic acid], the inhibition at 1 µM on MAGL [1] was more than 75%; at MAGL [2], more than 75%; at FAAH [3], 0 to 25%; at FAAH [4], 0 to 25%.

Take `CN(Cc1cccc(Cl)c1N1CCCC1)C1(C)CCN(C(=O)n2ccc(C(=O)O)n2)CC1` [Example 47, 1-(4-((3-chloro-2-(pyrrolidin-1-yl)benzyl)(methyl)amino)-4-methylpiperidine-1-carbonyl)-1H-pyrazole-3-carboxylic acid]: the inhibition at 1 µM was more than 75% at MAGL [1], more than 75% at MAGL [2], 0 to 25% at FAAH [3] and 0 to 25% on FAAH [4].

With `O=C(O)c1nn(C(=O)N2CCN(Cc3ccc(-c4cnc5ccccn45)cc3C(F)(F)F)CC2)cc1Cl` [Example 145, 4-chloro-1-(4-(4-(imidazo[1,2-a]pyridin-3-yl)-2-(trifluoromethyl)benzyl)piperazine-1-carbonyl)-1H-pyrazole-3-carboxylic acid], the inhibition at 1 µM is more than 75% on MAGL [1], more than 75% on MAGL [2], 50 to 75% at FAAH [3] and more than 75% on FAAH [4].

`NC(=O)c1ccn(C(=O)N2CCN(Cc3ccc(Cl)cc3)CC2)n1` [Example 181, 1-(4-(4-chlorobenzyl)pipera-zine-1-carbonyl)-1H-pyrazole-3-carboxamide]: the inhibition at 1 µM at MAGL [1], on MAGL [2], at FAAH [3] and on FAAH [4] was more than 75% in each case.

As to `CN(Cc1cccc(C(F)(F)F)c1)C1CCN(C(=O)n2ccc(C(N)=O)n2)CC1` [Example 176, 1-(4-(methyl(3-(trifluoromethyl)benzyl)amino)piper-idine-1-carbonyl)-1H-pyrazole-3-carboxamide], the inhibition at 1 µM at MAGL [1], on MAGL [2], on FAAH [3] and at FAAH [4] was more than 75% in each case.

Consider `O=C(O)c1ccn(C(=O)N2CCN(Cc3cccc(Oc4ccccc4Cl)c3)CC2)n1` [Example 85, 1-(4-(3-(2-chlorophenoxy)benzyl)piperazine-1-carbonyl)-1H-pyrazole-3-carboxylic acid], for which the inhibition at 1 µM on MAGL [1] was more than 75%; at MAGL [2], more than 75%; at FAAH [3], 0 to 25%; on FAAH [4] it was 50 to 75%. Besides, the pIC50 on FAAH [3] is 5.00 to 6.00.

In the case of `O=C(O)c1ccn(C(=O)N2CCN(Cc3ccc(Cl)cc3-c3nnco3)CC2)n1` [Example 67, 1-(4-(4-chloro-2-(1,3,4-oxadiazol-2-yl)benzyl)piperazine-1-carbonyl)-1H-pyrazole-3-carboxylic acid], the inhibition at 1 µM at MAGL [1] was more than 75%; on MAGL [2], more than 75%; on FAAH [3], 0 to 25%; at FAAH [4] it was 0 to 25%.

With `O=C(O)c1ccn(C(=O)N2CCC3(CCN(Cc4ccc(C(F)(F)F)c(Cl)c4)C3)CC2)n1` [Example 78, 1-(2-(3-chloro-4-(trifluoromethyl)benzyl)-2,8-diazaspiro[4.5]decane-8-carbonyl)-1H-pyrazole-3-carboxylic acid], the inhibition at 1 µM at MAGL [1] is more than 75%; at MAGL [2], more than 75%; at FAAH [3], 0 to 25%; at FAAH [4] it was 0 to 25%.

In the case of `O=C(O)c1ccn(C(=O)N2CCC3(CCN(C(=O)c4cc5ccc(C(F)(F)F)cc5s4)C3)CC2)n1` [Example 58, 1-(2-(6-(trifluoromethyl)benzo[b]thiophene-2-carbonyl)-2,8-diazaspiro[4.5]decane-8-carbonyl)-1H-pyrazole-3-carboxylic acid], the inhibition at 1 µM on MAGL [1] is more than 75%; at MAGL [2], more than 75%; at FAAH [3], 0 to 25%; at FAAH [4], 50 to 75%.

In the case of `O=C(O)c1ccn(C(=O)N2CCN(Cc3ccc(OC(F)(F)F)cc3-c3nnco3)CC2)n1` [Example 68, 1-(4-(2-(1,3,4-oxadiazol-2-yl)-4-(trifluoromethoxy)benzyl)piperazine-1-carbonyl)-1H-pyrazole-3-carboxylic acid], the inhibition at 1 µM at MAGL [1] is more than 75%; at MAGL [2], more than 75%; at FAAH [3] it was 0 to 25%; on FAAH [4], 0 to 25%.

`O=C(O)c1ccn(C(=O)N2CC3CN(Cc4cccc(-c5ccccc5)c4)CC3C2)n1` (stereo not shown) [Example 156, 1-(5-([1,1′-biphenyl]-3-ylmethyl)octahydropyrrolo[3,4-c]pyrrole-2-carbonyl)-1H-pyrazole-3-carboxylic acid]: the inhibition at 1 µM at MAGL [1] was more than 75%; at MAGL [2], more than 75%; at FAAH [3], 0 to 25%; at FAAH [4] it was more than 75%.

The pIC50 is the negative decadic logarithm of the IC50, by convention in mol/L. Low values mean a high IC50, high ones a low IC50.
